Source: patent US20250027041A1, “COMPOSITION FOR INDUCING TRANSDIFFERENTIATION AND STEM CELLS TREATED THEREWITH” (YJ CERAPEUTICS INC., priority 2021, published 2025)

Legend:
BM-MSC = assay: Tuj1 immunochemical assay, BM-MSC; assay type: cell-based, human; conditions: 10, 20 or 30 μM, 5 days
Procedure: (§1) To determine whether transdifferentiation into ciNSC5, neural progenitor cells, occurred similarly even in MSCs of different origins when human UCB-MSCs were treated with YJ101, YJ102, or YJ103 for 5 days, the expression of neuronal markers in differentiated ciNSC5 was confirmed by immunochemical assay using MSCs from human adipose-derived mesenchymal stem cells (AD-MSCs), human bone marrow-derived mesenchymal stem cells ([…]) and human umbilical cord blood-derived mesenchymal stem cells (UCB-MSCs; Promo Cells). Specifically, AD-MSC (StemPro™ Human Adipose-Derived Stem Cell, Gibco, Passage #6) was incubated in a MesenPRO RS™ medium, BM-MSC (ATCC, Passage #6) was incubated in a Mesenchymal Stem Cell Basal Medium for Adipose, Umbilical and Bone Marrow-derived MSC (Cat. PCS-500-030, ATCC) medium, and UCB-MSC (Promo Cell, Passage #6) was incubated in a CellCor™ CD MSC (Cat. YSP001, Xell Therapeutics) medium, and then dispensed at 2.1×10^4 cells/well in a 12-well plate with an 18 mm cover glass (circular) (DMSO control group was dispensed at 3.5×10^3 cells/well). […] The culture medium was removed, washed with PBS, and then fixed with 4% paraformaldehyde at room temperature for 10 minutes. After washed three times with PBS, the cells were permeabilized with PBS-T containing 0.5% Triton X-100 for 10 minutes, washed with PBS-T three times for 10 minutes each, and then blocked with a blocking solution (PBS-T containing 5% BSA and 5% goat serum) for 1 hour. Thereafter, the cells were treated with anti-Tuj1 antibody (Cat. 801201, BioLegend) diluted 1/5000 in a blocking solution and incubated at 4° C. overnight. The next day, the cells were washed 10 times for 10 minutes each with PBS-T, and then treated with anti-mouse IgG-cy3 diluted 1/2000 in a blocking solution, and incubated for 1 hour in dark conditions. Next, the cells were washed 10 times for 10 minutes each with PBS-T, mounted with a mounting solution containing DAPI, and then observed with a confocal microscope.

CtBP1-CtBP2 = target: T1, CtBP1-CtBP2 (Homo sapiens, UniProt P56545+Q13363); assay: Immunoprecipitation, CtBP1-CtBP2 heteromerization in UCB-MSCs; assay type: cell-based; conditions: YJ102 20 μM; FLAG-CtBP2 + HA-CtBP1
T1 construct: expressed in transfected cells; host or cells: human UCB-MSC
Procedure: To determine the effect of YJ102 on the regulation of oligomerization of C-terminal Binding Proteins (CtBPs) in human UCB-MSCs, immunoprecipitation analysis was performed. Specifically, UCB-MSCs were dispensed at 4×10^5 cells/ml in a 60 mm culture dish, and the next day, FLAG-CtBP1, HA-CtBP1, FLAG-CtBP2, and HA-CtBP1 were transfected into cells using 4 μl jetPRIME. Thereafter, the cells were treated with YJ102 (stock 30 mM in DMSO) and MTOB (stock 300 mM in DMSO) at 20 μM and 300 μM, respectively (Table 1). After 48 hours of transfection, proteins were extracted in the same manner as in Example 1-1. Protein G agarose slurry was washed with PBS and blocked with 1 ml of 1% BSA, washed with PBS, and added with 1 μg of anti-HA antibody diluted with 1.5 ml of PBS and incubated at 4° C. for 2 hours. Thereafter, the cells were centrifuged at 3,000×g for 2 minutes to remove the supernatant, washed with an IP150 buffer two times, added with 1 μg of the protein extracted above, and incubated at 4° C. overnight. After incubation, the cells were centrifuged at 3,000×g for 2 minutes to remove the supernatant, washed with PBS three times, added with 50 μl of 1 mg/ml HA peptide diluted with PBS, and incubated at room temperature for 10 minutes. […]

AD-MSC = assay: Tuj1 immunochemical assay, AD-MSC; assay type: cell-based, human; conditions: 10, 20 or 30 μM, 5 days
Procedure: as §1

UCB-MSCs [1] = assay: CellTiter-Glo proliferation assay; assay type: cell-based, human; conditions: 10, 20, or 40 μM; 3 or 5 days
Procedure: Thereafter, 100 μl of a CellTiter-Glo reagent prepared by mixing a CellTiter-Glo Buffer with a CellTiter-Glo substrate was added to each well of a 96-well plate, covered with a plate cover, and incubated at room temperature for 30 minutes.

UCB-MSCs [2] = assay: Tuj1 immunochemical assay, direct conversion of UCB-MSCs into ciNSC5; assay type: cell-based, human; conditions: 30 μM, 5 days
Procedure: Immunochemical assay was performed to confirm whether UCB-MSCs were transdifferentiated into ciNSC5, Tuj1-positive neural progenitor cells, by the compounds of the present invention, YJ101, YJ102, and YJ103. Specifically, UCB-MSCs were dispensed at 2.1×10^4 cells/well in a 12-well plate containing an 18 mm cover glass (a DMSO control group was dispensed at 3.5×10^3 cells/well). […] The culture medium was removed, washed with PBS, and then fixed with 4% paraformaldehyde at room temperature for 10 minutes. After washed three times with PBS, the cells were permeabilized with PBS-T containing 0.5% Triton X-100 for 10 minutes, washed with PBS-T three times for 10 minutes each, and then blocked with a blocking solution (PBS-T containing 5% BSA and 5% goat serum) for 1 hour. Thereafter, the cells were treated with anti-Tuj1 antibody (Cat. 801201, BioLegend) diluted 1/5000 in a blocking solution and incubated at 4° C. overnight. The next day, the cells were washed 10 times for 10 minutes each with PBS-T, and then treated with anti-mouse IgG-FITC diluted 1/500 in a blocking solution, and incubated for 1 hour in dark conditions. Next, the cells were washed 10 times for 10 minutes each with PBS-T, mounted with a mounting solution containing DAPI, and then observed with a confocal microscope.

**Q.** How did the “expression of Tuj1” value (BM-MSC) turn out when `CCc1ccc(N(C(=O)COC)c2nc3cc(Cl)ccc3o2)cc1` [YJ102] was run?
**A.** increased

**Q.** And the CtBP1-CtBP2 heteromerization (CtBP1-CtBP2)?
**A.** had no effect

**Q.** And the “expression of Tuj1” value (AD-MSC)?
**A.** increased

**Q.** And the “cell proliferation (CellTiter-Glo)” value (UCB-MSCs [1])?
**A.** reduced cell proliferation in a concentration-dependent manner

**Q.** What about the “direct conversion from UCB-MSCs to ciNSC5” value (UCB-MSCs [2]) of the same compound?
**A.** induced direct conversion

**Q.** And the “expression of Tuj1” value (UCB-MSCs [2]; UCB-MSC)?
**A.** increased
